One experiment deals with OB3b expressing sMMO. In words: Packed bed reactor with cyclopropane inhibitor. Format: cell-based, Methylosinus trichosporium (OB3b). Here is the method: A Packed Bed Reactor was used to evaluate the conversion of methane to methanol by cell of OB3b expressing sMMO. […] Cyclopropanol is expected to be produced via oxidation of cyclopropane by MMO in this example.
A continuous flow PBR was constructed using a glass HPLC column with the dimensions 2.5 cm ID and 13 cm packing height. Methane, oxygen, and the inhibitor feed solutions dissolved in media were contained within the two 100 mL syringes. The column was packed with alginate beads with sMMO-expressing OB3b formed in-situ under aseptic conditions Immobilized culture performance was evaluated in the PBR over a range of flow rates to achieve reactor residence times (τ) ranging from 0.2, 0.3, 0.5, and 8.5 hours. Two separate experiments were carried out, one for methane transformation (conversion) without the cyclopropane inhibitor and the other with the inhibitor (FIG. 26). For the methane utilization studies, the influent solution was developed by adding 7 mL methane and 21 mL oxygen to the 100 ml syringes. For the inhibition studies 1 ml of cyclopropane was added. After equilibration for 20 minutes, the gases were ejected from the syringes, and the syringes connected to the column inlet.
An integrated form of the Monod equation was used to analyze the results from the PBR experiment. It relates substrate conversion across a packed bed reactor, X, to the residence time, τ (min), and initial substrate concentration So (mg/L).
The solids lines in FIG. 26 were computed with the integrated Monod model using the Ks and kmax obtained from the batch data. The simulation used an effectiveness factor (η) of 1 indicating no loss in cell activity. Good fit was obtained between the simple analytical solution, equation above, and the experimental observations for the uninhibited case. The maximum conversion was 95±0.8% at a τ of 8 hours. For the cyclopropane inhibition embodiment, the same kmax as non-inhibited case was used, but with a Ks four times the uninhibited case to investigate the plausibility of competitive inhibition.

Experiment [1] concerns M. trichosporium OB3b culture. In words: CP exposure of culture immobilized in alginate beads, sequencing batch reactors. The note with it: for MeOH Accumulation Efficiency (MeOH accumulation/CH4 consumed): initial 24 hours of incubation with CH4. Type of experiment: cell-based. Here is the method:
In some embodiments, M. trichosporium OB3b culture was immobilized in alginate beads. M. trichosporium OB3b culture expressing sMMO was harvested and suspended to a final density of 10 g cell protein/L in 2% alginate. The alginate/cell mixture was extruded through a syringe needle into 100 mM CaCl2 to crosslink the alginate matrix, forming stable beads. Beads were rinsed with dH2O and re-suspended in 1/10 strength (dilute) growth media. M. trichosporium OB3b culture prepared this way is ideal for experimental manipulation such as CH4 or MeOH rate determinations after inhibitor exposure because beads can be quickly rinsed to remove trace inhibitor. OB3b culture immobilized in alginate in this way maintained activity for >7 days.
A chemostat grown, sMMO expressing, M. trichosporium OB3b culture was immobilized in alginate beads, and exposed to CP for 2, 6, and 18 hours in the absence of CH4. After inhibition, the consumption of CH4 and accumulation of MeOH was monitored in the presence and absence of 20 mM formate in sequencing batch reactors (FIGS. 37A-37C). Alginate beads were rinsed, at 24 hour intervals, before suspension in fresh media plus CH4. There was no significant difference: i) in the rate of methane consumption in the treatments that were exposed to CP for 2, 6 or 18 h (p>0.5, 30-80 μmol CH4 consumed/d, Table 2); ii) in the efficiency of MeOH accumulation in any of the treatments (Table 2); and, in the effect of formate on MeOH accumulation (P>0.18) for any exposure time, probably due to lack of complete MDH inhibition (Table 3). It was also observed that MeOH accumulated to a greater degree during days 2 and 3 in treatments after 6 or 18 hours of CP exposure.

Take `C1CC1` [CP, cyclopropane]: the “effect on methane transformation” value in the experiment with OB3b expressing sMMO (cyclopropane-amended column vs uninhibited) was “Inhibition of methane transformation was observed”. For the same compound, the Methane conversion in the experiment on OB3b expressing sMMO (residence time 4 hours) was 68±11%; in the experiment with OB3b expressing sMMO (residence time 8 hours), 95±1%. The “methanol production selectivity (percentage of methane converted to methanol)” value was found to be 102±39% with OB3b expressing sMMO (residence time 4 hours) and 91±32% with OB3b expressing sMMO (residence time 8 hours). Besides, the figures for the “Rates of MeOH consumption, Post Exposure” value in experiment [1] (CP exposure 2 h), in experiment [1] (CP exposure 6 h) and in experiment [1] (CP exposure 18 h) were 0.4 (0.0) μmol/h/mg protein, 0.6 (0.1) μmol/h/mg protein and 0.3 (0.1) μmol/h/mg protein, respectively. Moreover, the figures for the “MeOH Accumulation Efficiency (MeOH accumulation/CH4 consumed)” value in experiment [1] (CP exposure 2 h), in experiment [1] (CP exposure 6 h) and in experiment [1] (CP exposure 18 h) were 19 (4) %, 43 (1) % and 13 (1) %, respectively. Further, the “rate of methane consumption” value in experiment [1] (treatments exposed to CP for 2, 6 or 18 h) is recorded as 30-80 μmol CH4 consumed/d.

The values are drawn from US20180258381A1, “BIO-LAMINA BIOREACTORS AND METHODS OF MAKING AND USING THE SAME” (Oregon State University, priority 2015, published 2018).
